# In US6288277A, “Benzylamine and phenylethylamine derivatives, processes for preparing the same and their use as medicaments” (Boehringer Ingelheim Pharma KG, priority 1997, dated 2001):
# pKi: −log10 of the molar value. Structures can show the parent of a compound that is named as a salt.
# Target: LTB4-receptor (Homo sapiens, UniProt Q15722)
# Experiment: Ki (LTB4-receptor; tests as described in WO 93/16036, pages 15 to 17)
# Format: binding
# Sequence of LTB4-receptor (Q15722 whole entry): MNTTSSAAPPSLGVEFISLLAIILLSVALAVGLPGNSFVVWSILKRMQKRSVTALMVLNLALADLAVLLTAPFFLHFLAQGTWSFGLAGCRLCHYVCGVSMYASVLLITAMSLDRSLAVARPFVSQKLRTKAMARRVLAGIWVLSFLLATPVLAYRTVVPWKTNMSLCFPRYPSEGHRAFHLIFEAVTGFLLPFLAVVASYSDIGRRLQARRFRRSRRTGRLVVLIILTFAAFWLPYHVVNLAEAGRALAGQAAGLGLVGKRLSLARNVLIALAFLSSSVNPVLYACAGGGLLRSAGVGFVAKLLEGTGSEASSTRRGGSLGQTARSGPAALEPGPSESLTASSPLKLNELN
row,pKi,Compound
1,7.79,CC(C)(c1ccccc1)c1ccc(OCc2cccc(COc3ccc(CN)cc3)c2)cc1
2,7.86,NCc1ccc(OCc2cccc(COc3cccc(C(=O)c4ccccc4)c3)c2)cc1
3,7.95,NCc1ccc(OCc2cccc(COc3ccc(C4(c5ccc(O)cc5)CCC4)cc3)c2)cc1
4,7.67,CC(c1ccc(O)cc1)c1ccc(OCc2cccc(COc3ccc(CN)cc3)c2)cc1 (stereo not drawn)
5,8.72,NCc1ccc(OCc2cccc(COc3ccc(S(=O)(=O)c4ccc(O)cc4)cc3)c2)cc1
6,7.54,NCc1ccc(OCc2cccc(COc3ccc(Sc4ccc(O)cc4)cc3)c2)cc1
7,8.80,NCc1ccc(OCc2cccc(COc3ccc([S+]([O-])c4ccc(O)cc4)cc3)c2)cc1 (stereo not drawn)
8,7.55,CC(C)(c1ccc(O)cc1)c1ccc(OCc2cccc(COc3ccc(CN)cc3)c2F)cc1
9,9.26,CC(C)(c1ccc(OCc2cccc(COc3ccc(CN)cc3)c2)cc1)c1ccc(O[C@@H]2O[C@H](CO)[C@@H](O)[C@H](O)[C@H]2O)cc1
10,7.22,NCc1ccc(OCc2cccc(COc3ccc(Oc4ccc(O)cc4)cc3)c2)cc1
11,7.49,Cc1cc(C(C)(C)c2ccc(OCc3cccc(COc4ccc(CN)cc4)c3)c(C)c2)ccc1O
12,7.29,CC(C)(c1ccc(O)cc1)c1ccc(C(C)(C)c2ccc(OCc3cccc(COc4ccc(CN)cc4)c3)cc2)cc1
13,7.83,CCOC(=O)CCC(C)(c1ccc(O)cc1)c1ccc(OCc2cccc(COc3ccc(CN)cc3)c2)cc1 (stereo not drawn)
14,9.30,CC(CCC(=O)O)(c1ccc(O)cc1)c1ccc(OCc2cccc(COc3ccc(CN)cc3)c2)cc1 (stereo not drawn)
15,7.94,COC(=O)c1ccc(C(C)(C)c2ccc(OCc3cccc(COc4ccc(CN)cc4)c3)cc2)cc1
16,7.88,CC(C)N(C(=O)c1ccc(C(C)(C)c2ccc(OCc3cccc(COc4ccc(CN)cc4)c3)cc2)cc1)C(C)C
17,6.58,CCOC(=O)NCc1ccc(OCc2cccc(COc3ccc(C(C)(C)c4ccc(O)cc4)cc3)c2)cc1
18,8.55,CCOC(=O)C(C)(c1ccc(O)cc1)c1ccc(OCc2cccc(COc3ccc(CN)cc3)c2)cc1 (stereo not drawn)
19,8.35,CCOC(=O)NCC(C)(C)c1ccc(OCc2cccc(COc3ccc(CN)cc3)c2)cc1
20,7.17,CC(C)(CN)c1ccc(OCc2cccc(COc3ccc(CN)cc3)c2)cc1
21,8.12,CC(C)(C)Oc1ccc(OCc2cccc(COc3ccc(CN)cc3)c2)cc1
22,9.07,CC(C)(c1ccc(OCc2cccc(COc3ccc(CN)cc3)c2)cc1)c1ccc(C(=O)N2CCCCC2)cc1
23,7.75,CC(C)(c1ccccc1)c1ccc(OCc2cccc(COc3ccc(CN)cc3)c2)c(O)c1
24,7.66,CC(C)(c1ccccc1)c1ccc(O)c(OCc2cccc(COc3ccc(CN)cc3)c2)c1
25,7.41,NCc1ccc(OCc2cccc(COc3ccc(Cc4ccc(O)cc4)cc3)c2)cc1
26,7.66,NCc1ccc(OCc2cccc(COc3ccc(C(c4ccc(O)cc4)(C(F)(F)F)C(F)(F)F)cc3)c2)cc1
27,7.97,CC(C)(c1ccc(O)cc1F)c1ccc(OCc2cccc(COc3ccc(CN)cc3)c2)cc1F
28,8.62,CC(C)(c1ccc(O)cc1)c1ccc(OCc2cccc(COc3ccc(CN)cc3)c2)c(O)c1
29,7.51,CC(C)(c1ccccc1)c1ccc(OCc2cccc(COc3ccc(CCN)cc3)c2)cc1 [2-[4-[[3-[[4-[1-phenyl-1-methylethyl]phenoxy]methyl]phenyl]methoxy]]-ethylamine hydrochloride]
30,7.80,CC(C)(c1ccc(O)cc1)c1ccc(OCc2cccc(COc3ccc(CN)cc3)c2)cc1 [4-[[3-[[4-[1-(4-Hydroxyphenyl)-1-methylethyl]phenoxy]methyl]phenyl]methoxy]-benzylamine hydrochloride]
